Measurements: article PMC4503722, “Novel Phenotypic Outcomes Identified for a Public Collection of Approved Drugs from a Publicly Accessible Panel of Assays” (PLoS ONE, 2015)

System: RKO
Assay: cells
Type: cell-based
Conditions: not given

Row | Structure (SMILES) | Basal_Viability ATP RKO IC50/EC50
1 | Cc1onc(-c2ccccc2)c1-c1ccc(S(N)(=O)=O)cc1 [NCGC00095129-06] | > 20 µM

Same assay, conditions: assay number 29

Row | Structure (SMILES) | Basal_Viability ATP RKO IC50/EC50
2 | O=c1c(C2CC(c3ccc(-c4ccc(Br)cc4)cc3)Cc3ccccc32)c(O)sc2ccccc12 (stereo not shown) [NCGC00262959-01] | 0.5378 µM
3 | CC=CC1=C(C(=O)O)N2C(=O)[C@@H](NC(=O)[C@H](N)c3ccc(O)cc3)[C@H]2SC1 [NCGC00159513-03] | > 20 µM
4 | CCOC(=O)Oc1ccc(CCNC(=O)[C@H](CCSC)NC(C)=O)cc1OC(=O)OCC [NCGC00249931-01] | > 20 µM

System: Colo320
Assay: cells
Type: cell-based
Conditions: not given

Row | Structure (SMILES) | Basal_Viability ATP Colo 320 IC50/EC50
5 | Cc1onc(-c2ccccc2)c1-c1ccc(S(N)(=O)=O)cc1 [NCGC00095129-06] | > 20 µM

Same assay, conditions: assay number 27

Row | Structure (SMILES) | Basal_Viability ATP Colo 320 IC50/EC50
6 | O=c1c(C2CC(c3ccc(-c4ccc(Br)cc4)cc3)Cc3ccccc32)c(O)sc2ccccc12 (stereo not shown) [NCGC00262959-01] | 0.7354 µM
7 | CC=CC1=C(C(=O)O)N2C(=O)[C@@H](NC(=O)[C@H](N)c3ccc(O)cc3)[C@H]2SC1 [NCGC00159513-03] | > 20 µM
8 | CCOC(=O)Oc1ccc(CCNC(=O)[C@H](CCSC)NC(C)=O)cc1OC(=O)OCC [NCGC00249931-01] | > 20 µM

System: HCT116
Assay: cells
Type: cell-based
Conditions: not given

Row | Structure (SMILES) | Basal_Viability ATP HCT116 IC50/EC50
9 | Cc1onc(-c2ccccc2)c1-c1ccc(S(N)(=O)=O)cc1 [NCGC00095129-06] | > 20 µM

Same assay, conditions: assay number 25; basal

Row | Structure (SMILES) | Basal_Viability ATP HCT116 IC50/EC50
10 | O=c1c(C2CC(c3ccc(-c4ccc(Br)cc4)cc3)Cc3ccccc32)c(O)sc2ccccc12 (stereo not shown) [NCGC00262959-01] | 0.4855 µM
11 | CC=CC1=C(C(=O)O)N2C(=O)[C@@H](NC(=O)[C@H](N)c3ccc(O)cc3)[C@H]2SC1 [NCGC00159513-03] | > 20 µM
12 | CCOC(=O)Oc1ccc(CCNC(=O)[C@H](CCSC)NC(C)=O)cc1OC(=O)OCC [NCGC00249931-01] | > 20 µM

System: HT-29
Assay: cells
Type: cell-based
Conditions: not given

Row | Structure (SMILES) | Basal_Viability ATP HT-29 IC50/EC50
13 | Cc1onc(-c2ccccc2)c1-c1ccc(S(N)(=O)=O)cc1 [NCGC00095129-06] | > 20 µM

Same assay, conditions: assay number 28

Row | Structure (SMILES) | Basal_Viability ATP HT-29 IC50/EC50
14 | O=c1c(C2CC(c3ccc(-c4ccc(Br)cc4)cc3)Cc3ccccc32)c(O)sc2ccccc12 (stereo not shown) [NCGC00262959-01] | 0.4364 µM
15 | CC=CC1=C(C(=O)O)N2C(=O)[C@@H](NC(=O)[C@H](N)c3ccc(O)cc3)[C@H]2SC1 [NCGC00159513-03] | > 20 µM
16 | CCOC(=O)Oc1ccc(CCNC(=O)[C@H](CCSC)NC(C)=O)cc1OC(=O)OCC [NCGC00249931-01] | > 20 µM

System: DLD-1
Assay: cells
Type: cell-based
Conditions: not given

Row | Structure (SMILES) | Basal_Viability ATP DLD-1 IC50/EC50
17 | Cc1onc(-c2ccccc2)c1-c1ccc(S(N)(=O)=O)cc1 [NCGC00095129-06] | > 20 µM

Same assay, conditions: assay number 23

Row | Structure (SMILES) | Basal_Viability ATP DLD-1 IC50/EC50
18 | O=c1c(C2CC(c3ccc(-c4ccc(Br)cc4)cc3)Cc3ccccc32)c(O)sc2ccccc12 (stereo not shown) [NCGC00262959-01] | 0.239 µM
19 | CC=CC1=C(C(=O)O)N2C(=O)[C@@H](NC(=O)[C@H](N)c3ccc(O)cc3)[C@H]2SC1 [NCGC00159513-03] | > 20 µM
20 | CCOC(=O)Oc1ccc(CCNC(=O)[C@H](CCSC)NC(C)=O)cc1OC(=O)OCC [NCGC00249931-01] | > 20 µM

System: SNU-C1
Assay: cells
Type: cell-based
Conditions: not given

Row | Structure (SMILES) | Basal_Viability ATP SNU-C1 IC50/EC50
21 | Cc1onc(-c2ccccc2)c1-c1ccc(S(N)(=O)=O)cc1 [NCGC00095129-06] | > 20 µM

Same assay, conditions: assay number 30

Row | Structure (SMILES) | Basal_Viability ATP SNU-C1 IC50/EC50
22 | O=c1c(C2CC(c3ccc(-c4ccc(Br)cc4)cc3)Cc3ccccc32)c(O)sc2ccccc12 (stereo not shown) [NCGC00262959-01] | 0.2516 µM
23 | CC=CC1=C(C(=O)O)N2C(=O)[C@@H](NC(=O)[C@H](N)c3ccc(O)cc3)[C@H]2SC1 [NCGC00159513-03] | > 20 µM
24 | CCOC(=O)Oc1ccc(CCNC(=O)[C@H](CCSC)NC(C)=O)cc1OC(=O)OCC [NCGC00249931-01] | > 20 µM

System: SW480
Assay: cells
Type: cell-based
Conditions: not given

Row | Structure (SMILES) | Basal_Viability ATP SW480 IC50/EC50
25 | Cc1onc(-c2ccccc2)c1-c1ccc(S(N)(=O)=O)cc1 [NCGC00095129-06] | > 20 µM

Same assay, conditions: assay number 24

Row | Structure (SMILES) | Basal_Viability ATP SW480 IC50/EC50
26 | O=c1c(C2CC(c3ccc(-c4ccc(Br)cc4)cc3)Cc3ccccc32)c(O)sc2ccccc12 (stereo not shown) [NCGC00262959-01] | 0.187 µM
27 | CC=CC1=C(C(=O)O)N2C(=O)[C@@H](NC(=O)[C@H](N)c3ccc(O)cc3)[C@H]2SC1 [NCGC00159513-03] | > 20 µM
28 | CCOC(=O)Oc1ccc(CCNC(=O)[C@H](CCSC)NC(C)=O)cc1OC(=O)OCC [NCGC00249931-01] | > 20 µM
